Experimental data as given in patent publication US9295627B2 (priority 2011, dated 2016).
Like-named read-outs stand apart in the source and are kept apart here.

Legend:
Acute toxicity test = conditions: female, BALB/c, mouse, in vivo, ip
Protocol: Two grams of any one of the adenosine N1-oxide obtained in Experiment 1, the 3′-glucosyladesonine N1-oxide and 5′-glucosyladenosine N1-oxide obtained in Experiment 2, and the 5′-adenosine diphosphate N1-oxide and 5′-adenosine triphosphate N1-oxide obtained in Experiment 3 was dissolved in 100 mL of D-PBS (Dulbecco's Phosphate-Buffered Salines). The resulting solution was intraperitoneally administered to 10 BALB/c female mice, six-week-old, with an average body mass of 20 g each, commercialized by Charles River Laboratories Japan, Inc., Kanagawa, Japan, at a dose of one milliliter/head, followed by observation for 24 hours. As a control, only D-PBS was intraperitoneally administered to 10 BALB/c female mice, six-week-old, with an average body mass of 20 g each, commercialized by Charles River Laboratories Japan, Inc., Kanagawa, Japan, at a dose of one milliliter/head, followed by observation for 24 hours. Thereafter, each mouse was collected her blood and urine for measuring clinical test items as indexes for renal and liver functions. […] As a result, adenosine N1-oxide, 3′-glucosyladenosine N1-oxide, 5‘-glucosyladenosine N1-oxide, 5’-adenosinme diphosphate N1-oxide, and 5′-adenosine triphosphate N1-oxide have an LD50 of at least 1,000 mg/kg, respectively. Thus, these compounds are judged as substances safely administrable to humans.

[1] = Solubility in solvents such as water; assay type: physicochemical
[2] = tested on: medium periodontal diseases; experiment: Volunteer test 2: tooth mobility after mouthwash use, concentration series; assay type: in vivo, human; conditions: aqueous mouthwash, % by mass, Experiment 6
From the text: • A: A distinct improvement in tooth mobility is observed on a tooth mobility test (or periodontometry) with a pincette compared with that before initiating the test; • B: Somewhat improvement in tooth mobility is observed on a tooth mobility test with a pincette compared with that before initiating the test; and • C: No improvement or rather aggravation is observed on a tooth mobility test with a pincette compared with that before initiating the test.
For adenosine N1-oxide, which had marked the highest improvement effect on periodontal diseases in Experiment 5, it was examined in more detail for its improvement action on periodontal diseases: Eight females, 20- to 30-year-old, as subjects, who were healthy except for suffering from medium periodontal diseases (with a periodontal pocket depth of 3 mm or deeper but less than 6 mm), were subjected to a volunteer test similarly as in Experiment 5 except for using six types of aqueous solutions containing 0.001 to 7.5% adenosine N1-oxide and setting a test period of seven months. […]
The subjects were allowed to brush their teeth with the same toothpaste as used in Experiment 5. […] Before initiating the test, a dental hygienist under a doctor's guidance evaluated the conditions of gingivitis for each subject […] based on the same criteria as shown in Experiment 5.

[3] = 1000 mg/kg, intraperitoneal, 2 g in 100 mL D-PBS, one milliliter/head, mice of 20 g, observation for 24 hours, read-out: LD50

Structure (SMILES)	LD50 at 24 h (Acute toxicity test; [3]) [mg/kg]	solubility in solvents such as water compared to adenosine N1-oxide [1]	LD50 at 24 h (Acute toxicity test) [mg/kg]	concentrations at which periodontal diseases are distinctly, effectively prevented and/or treated [2] [%]
Nc1c2ncn([C@@H]3O[C@H](CO)[C@@H](O[C@H]4O[C@H](CO)[C@@H](O)[C@H](O)[C@H]4O)[C@H]3O)c2nc[n+]1[O-]	≥ 1000	higher solubility	–	–
Nc1c2ncn([C@@H]3O[C@H](CO[C@H]4O[C@H](CO)[C@@H](O)[C@H](O)[C@H]4O)[C@@H](O)[C@H]3O)c2nc[n+]1[O-]	≥ 1000	higher solubility	–	–
Nc1c2ncn(C3OC(COP(=O)(O)OP(=O)(O)O)C(O)C3O)c2nc[n+]1[O-] (centres unmarked) [5′-adenosine diphosphate N1-oxide]	–	higher solubility	–	–
Nc1c2ncn([C@@H]3O[C@H](COP(=O)(O)OP(=O)(O)OP(=O)(O)O)[C@@H](O)[C@H]3O)c2nc[n+]1[O-] [5′-adenosine triphosphate N1-oxide]	–	higher solubility	–	–
Nc1c2ncn([C@@H]3O[C@H](CO)[C@@H](O)[C@H]3O)c2nc[n+]1[O-] [adenosine N1-oxide]	–	–	≥ 1000	≥ 0.5
